According to patent US20100113347A1 (priority 2007, published 2010):

Assays:
[1] = system: mice with alloxan diabetes; assay: Blood cholesterol level in mice with alloxan diabetes (Example 1); type: in vivo; details: exenatide 7.5 mcg/kg
Method: Diabetes was induced in white mice by a single intraperitoneal administration of alloxan in a dose of 135 mg/kg. […] Control animals received injections of saline solution. By day 31 of the experiment, the levels of blood glucose and cholesterol were measured after an overnight fast. Data are presented as a mean±standard deviation (n=5) of the measured levels of glucose or cholesterol. […] To determine the therapeutic effect of lowering the level of glucose, the following formula was used: […]
To determine the therapeutic effect of lowering the level of cholesterol, the following formula was used:
ΔCholesterol=Cholesterolmedication−Cholesterolcontrol.
(§1) Statistical differences of the obtained results were assessed with the use of Student's t-test.

[2] = system: mice with alloxan diabetes; assay: Blood glucose level in mice with alloxan diabetes (Example 1); type: in vivo; details: exenatide 7.5 mcg/kg
Method: Diabetes was induced in white mice by a single intraperitoneal administration of alloxan in a dose of 135 mg/kg. […] Control animals received injections of saline solution. By day 31 of the experiment, the levels of blood glucose and cholesterol were measured after an overnight fast. Data are presented as a mean±standard deviation (n=5) of the measured levels of glucose or cholesterol. […] To determine the therapeutic effect of lowering the level of glucose, the following formula was used:
ΔGlucose=Glucosemedication−Glucosecontrol.
as §1

[3] = day 31, after overnight fast, s.c. twice daily for 30 days, dalargin 8.8 mcg/kg
[4] = day 31, after overnight fast, s.c. twice daily for 30 days, dalargin 8.8 mcg/kg, mean±SD, n=5
[5] = dalargin 8.8 mcg/kg s.c. twice daily for 30 days

For “tirozil-2-alanil-glycil-phenylalanyl-leucil-arginine [Dalargin]”, the “Δ Cholesterol (Cholesterol medication − Cholesterol control)” value [1, 3] was -0.27 mmol/L, the Cholesterol [1, 4] was 2.34 ± 0.16 mmol/L and the “effect on blood cholesterol after an overnight fast (in words)” value [1, 5] was “inefficient”. For the same substance, the “Δ Glucose (Glucose medication − Glucose control)” value [2, 3] was -0.9 mmol/L, the Glucose [2, 4] was 10.6 ± 1.3 mmol/L and the “effect on blood glucose levels after an overnight fast (in words)” value [2, 5] was “inefficient”.
